From publication PMC11249646, “Small-Molecule Disruptors of the Interaction between Calcium- and Integrin-Binding Protein 1 and Integrin αIIbβ3 as Novel Antiplatelet Agents” (ACS Pharmacology & Translational Science, 2024)
Read-outs that look alike come from different tables or passages of the source.

Columns and labels:
[1] = molecular target: T1, CIB1 and αIIb interaction (CIB1-GST : F-αIIb peptide) (Homo sapiens, UniProt Q99828); assay: FP assay, 1536-well qHTS format (primary and confirmatory screen); assay type: binding; details: for Curve Class (confirmatory screen) / CONFIRMATORY SCREEN Curve Class: qHTS curve class
T1 construct: made in house; host or cells: BL-21 plus RIL cells (E. coli)
T1 sequence (Q99828 1-191): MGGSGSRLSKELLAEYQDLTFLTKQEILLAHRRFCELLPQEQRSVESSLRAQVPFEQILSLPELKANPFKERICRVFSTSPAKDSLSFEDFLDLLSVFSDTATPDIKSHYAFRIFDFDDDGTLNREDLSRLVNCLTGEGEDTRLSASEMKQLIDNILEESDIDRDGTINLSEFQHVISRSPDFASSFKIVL

[2] = molecular target: T2, GST-CIB1 : F-scrambled peptide (Homo sapiens, UniProt Q99828); assay: FP scrambled-peptide counter screen, 1536-well format; assay type: binding; details: for Curve Class (counterscreen) / COUNTERSCREEN Curve Class: qHTS curve class
T2 construct: made in house; host or cells: BL-21 plus RIL cells (E. coli)
T2 sequence (Q99828 1-191): T1 sequence (Q99828 1-191)

[3] = confirmatory screen, negative sign = inhibitory curve
[4] = qHTS primary screen hits, Table S2, negative = inhibition
[5] = qHTS primary screen hits, Table S2, negative sign = inhibitory curve, several classes where COUNT > 1
[6] = qHTS primary screen hits, Table S2, read-out: IC50
[7] = counterscreen, negative sign = inhibitory curve
[8] = counterscreen, read-out: IC50 [μM] (counterscreen)
[9] = Table S3, confirmatory screen, negative = inhibition
[10] = Table S3, counterscreen, negative = inhibition
[11] = Table S3, counterscreen, read-out: IC50 [μM] (counterscreen)
[12] = confirmatory screen, read-out: IC50 [μM] (confirmatory screen)
[13] = Table S3, confirmatory screen, YES/NO call
[14] = Table S3, confirmatory screen, a negative sign marks inhibitory curves
[15] = Table S3, confirmatory screen, read-out: IC50 [μM] (confirmatory screen)
[16] = Table S3, counterscreen, a negative sign marks inhibitory curves
[17] = confirmatory screen, YES/NO call
[18] = confirmatory screen, negative = inhibition
[19] = scrambled-peptide counterscreen
[20] = scrambled-peptide counterscreen, YES/NO call
[21] = qHTS FP screen hits, Table S2, negative = inhibition
[22] = qHTS FP screen hits, Table S2, read-out: IC50
[23] = qHTS FP screen hits, Table S2, one class per curve where COUNT > 1, negative sign = inhibitory curve

| SMILES | Efficacy (%) (confirmatory screen) ([1]; confirmatory screen) | Confirm? (confirmatory screen) ([1]; confirmatory screen, YES/NO) | Curve Class (confirmatory screen) [1, 3] | Efficacy (%) [1, 4] | Curve Class [1, 5] | IC50 [1, 6] | Efficacy (%) (counterscreen) ([2]; counterscreen) | Curve Class (counterscreen) [2, 7] | IC50 [2, 8] | Efficacy (%) (confirmatory screen) [1, 9] | Efficacy (%) (counterscreen) [2, 10] | IC50 [2, 11] | IC50 [1, 12] | Curve Class (confirmatory screen) [1, 14] | Curve Class (counterscreen) [2, 16] | further results |
| --- | --- | --- | --- | --- | --- | --- | --- | --- | --- | --- | --- | --- | --- | --- | --- | --- |
| Cc1cc(C)nc(NC(=S)N2CCN(c3ccc4nsnc4c3)CC2)c1.O=C(O)C(F)(F)F [NCGC00244160-01] | -106% | YES | -2.1 | -85% | -2.1 | 50.1 µM | -93% | -2.2 | 39.8 µM |  |  |  |  |  |  |  |
| O=C([O-])c1c(Cl)c(Cl)c(Cl)c(Cl)c1-c1c2cc(I)c(=O)c(I)c-2oc2c(I)c(O)c(I)cc12.[Na+] [NCGC00159508-05] |  |  |  | -26% | -2.4 | 13.6 µM |  |  |  | 261% | 311% | 44.7 µM |  |  |  |  |
| Cc1cccc(C(=O)c2no[n+]([O-])c2C(=O)c2cccc(C)c2)c1.O=C(O)C(F)(F)F [NCGC00351156-01] | -73% | YES | -2.2 | -52% | -1.2 | 7.9 µM | -65% | -1.2 | 10 µM |  |  |  | 31.6 µM |  |  |  |
| CS(=O)(=O)c1ccc(C(=O)OCC(=O)N2CCN(CCC3CCCCC3)CC2)cc1[N+](=O)[O-].O=C(O)C(F)(F)F [NCGC00188531-01] |  |  |  | -26% | -1.4 | 0.9 µM |  |  |  | -49% | -50% | 39.8 µM |  | -3 | -2.2 | Confirm? (confirmatory screen) [1, 13]: YES; IC50 [1, 15]: 39.8 µM |
| CC(C)Oc1cccc(NC(=O)c2ccccc2C(F)(F)F)c1 [NCGC00160537-04] |  |  |  |  |  | 100 µM |  |  |  |  | -39% | 39.8 µM |  |  |  | Confirm? (counterscreen) ([2]; Table S3, counterscreen, YES/NO call): YES |
| O=C(Cc1ccc(Cl)c(Cl)c1)Nc1ccc(S(=O)(=O)Nc2cccc(C(=O)O)c2)cc1.O=C(O)C(F)(F)F [NCGC00248362-01] |  |  |  | -20% |  | 12.6 µM |  |  |  |  |  |  |  |  |  | CONFIRMATORY SCREEN Confirm? [1, 17]: YES; CONFIRMATORY SCREEN Curve Class [1, 3]: -1.4; CONFIRMATORY SCREEN Efficacy (%) [1, 18]: -27%; Curve Class ([1]; qHTS primary screen hits, Table S2, negative sign = inhibitory curve): -1.4; COUNTERSCREEN Efficacy (%) [2, 19]: 26%; COUNTERSCREEN Confirm? [2, 20]: YES; COUNTERSCREEN Curve Class [2, 19]: 4 |
| CCOC(=O)c1cc(-c2ccco2)nc2c1c(C)nn2CCC#N.O=C(O)C(F)(F)F [NCGC00037529-03] | -61% | YES | -2.2 |  |  |  | -56% | -2.4 | 56.2 µM |  |  |  | 50.1 µM |  |  | Efficacy (%) [1, 21]: -27%; IC50 [1, 22]: 39.8 µM |
| Cc1cc(NS(=O)(=O)c2ccc(NC(=O)Cc3cccc4ccccc34)cc2)no1.O=C(O)C(F)(F)F [NCGC00244880-01] |  |  |  | -21% | -1.4 | 17.8 µM |  |  |  | -48% | -64% | 20 µM |  | -2.2 | -2.2 | Confirm? (confirmatory screen) [1, 13]: YES; IC50 [1, 15]: 31.6 µM |
| CCOC(=O)c1ccc(O)c2ncc(N3CCC(C(=N)N)CC3)cc12.O=C(O)C(F)(F)F [NCGC00241051-01] | -129% | YES | -1.1 | -93% | -1.1 |  | -115% | -1.3 | 7.1 µM |  |  |  |  |  |  |  |
| CN(C)[C@H]1CCN(c2cccc(Nc3nn4c(=O)c5ccccc5nc4s3)c2)C1.O=C(O)C(F)(F)F [NCGC00189222-02] |  |  |  | -39% |  | 32.8 µM |  |  |  |  |  |  |  |  |  | CONFIRMATORY SCREEN Confirm? [1, 17]: YES; CONFIRMATORY SCREEN Curve Class [1, 3]: -2.4; CONFIRMATORY SCREEN Efficacy (%) [1, 18]: -54%; COUNTERSCREEN Efficacy (%) [2, 19]: -79%; COUNTERSCREEN Confirm? [2, 20]: YES; COUNTERSCREEN Curve Class [2, 19]: -2.2; IC50 ([2]; scrambled-peptide counterscreen, read-out: COUNTERSCREEN IC50): 56.2 µM |
| CCOC(=O)c1nn(-c2ccc(OC)cc2)c(=O)c2c(N)scc12 [NCGC00053250-03] | -69% | YES | -2.4 |  |  |  | -59% | -2.2 | 20 µM |  |  |  | 70.8 µM |  |  | Efficacy (%) [1, 21]: -56%; Curve Class [1, 23]: -1.2; IC50 [1, 22]: 39.8 µM |
| CCOc1ccc(CCNC(=O)c2ccc(N3N=C(C)CC3=O)cc2)cc1OCC.O=C(O)C(F)(F)F [NCGC00241439-01] |  |  |  | -42% | -1.2 | 22.4 µM |  |  |  | -41% | -33% |  |  | 4 | 4 |  |
| Cc1cc(SCc2sc(-c3ccc(Cl)c(Cl)c3)nc2C)ccc1OCC(=O)O.O=C(O)C(F)(F)F [NCGC00319075-01] | -74% | YES | -3 | -41% |  | 34 µM | 78% |  | 79.4 µM |  |  |  | 35.5 µM |  |  | Confirm? (counterscreen) ([2]; counterscreen, YES/NO): YES |
| CC(=O)Nc1sc2c(c1-c1nc3ccccc3o1)CCN(C(C)C)C2.O=C(O)C(F)(F)F [NCGC00184832-01] |  |  |  | -78% | -2.2 | 50.1 µM |  |  |  | -47% | -55% | 50.1 µM |  | -1.2 | -2.2 | Confirm? (confirmatory screen) [1, 13]: YES; IC50 [1, 15]: 39.8 µM |
| Oc1ccc2c(-c3c(-c4ccccn4)nn4c3CCC4)ccnc2c1 [NCGC00408881-01] | -42% | YES | -2.2 |  |  |  | -32% | -2.2 | 50.1 µM |  |  |  | 39.8 µM |  |  | Efficacy (%) [1, 21]: -36%; Curve Class [1, 23]: -1.2; IC50 [1, 22]: 28.2 µM |
| Cc1cc2nc3ccc(N(C)C)cc3[s+]c2cc1N.Cl.[Cl-] [NCGC00181775-02] | -72% | YES | -2.2 | -38% | -2.4 | 39.8 µM | -83% | -2.2 | 44.7 µM |  |  |  | 22.4 µM |  |  |  |
| O=C(O)C(F)(F)F.O=S(=O)(NCc1nccs1)c1ccc(Nc2nc(-c3ccccc3)cs2)cc1 [NCGC00262383-01] |  |  |  |  |  |  |  |  |  | -80% | -83% | 50.1 µM |  | -2.2 | -2.2 | Confirm? (confirmatory screen) [1, 13]: YES; Efficacy (%) [1, 21]: -60%; Curve Class [1, 23]: -2.2; IC50 [1, 22]: 50.1 µM |
| CO[C@@H]1C(N(C)C(=O)c2ccccc2)C[C@H]2O[C@]1(C)n1c3ccccc3c3c4c(c5c6ccccc6n2c5c31)C(=O)NC4=O (stereo partly shown) [NCGC00345083-01] |  |  |  | -67% | -2.2 | 19.2 µM |  |  |  | -78% | -150% | 22.4 µM |  | -1.2 | -1.1 | Confirm? (confirmatory screen) [1, 13]: YES; IC50 [1, 15]: 14.1 µM |
| CNc1ccc([N+](=O)[O-])c(Nc2ccc3[nH]ncc3c2)n1 [NCGC00387499-01] | -53% | YES | -1.2 |  |  |  | -36% | -1.2 | 4 µM |  |  |  | 2.8 µM |  |  | Efficacy (%) [1, 21]: -48%; Curve Class [1, 23]: -1.2; IC50 [1, 22]: 3.5 µM |
| CNC(=S)N/N=C1\C(=O)Nc2ccccc21.O=C(O)C(F)(F)F [NCGC00229528-01] |  |  |  | -26% | -1.4 | 7.9 µM |  |  |  |  |  |  |  |  |  | CONFIRMATORY SCREEN Confirm? [1, 17]: YES; CONFIRMATORY SCREEN Curve Class [1, 3]: -1.4; CONFIRMATORY SCREEN Efficacy (%) [1, 18]: -28%; IC50 ([1]; confirmatory screen, read-out: CONFIRMATORY SCREEN IC50): 14.1 µM; COUNTERSCREEN Efficacy (%) [2, 19]: -28%; COUNTERSCREEN Confirm? [2, 20]: YES; COUNTERSCREEN Curve Class [2, 19]: 4 |
| CO[C@@]12[C@H](COC(N)=O)C3=C(C(=O)C(C)=C(N)C3=O)N1C[C@@H]1N[C@@H]12 [NCGC00163468-05] |  |  |  | -38% | -1.2 | 25.1 µM |  |  |  | -31% | 95% | 39.8 µM |  | 4 | 3 |  |
